For the test, the system named is SEM cells. Nature of the test: cell viability relative to DMSO control; higher = less cytotoxic. The settings on record: 48 h. An outline of the steps: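 Leukemia cells (NOMO1 or SEM, 500 cells/well; P12-Ichikawa, 1000 cells/well) were seeded in 5 μl in 1536-well plates after at least four passages of adaptation to each medium. They received library compounds in DMSO by pin dosing, 11 threefold points from 47 μM to 0.79 nM. Luminescence with CellTiter-Glo One was read after 48 h at 37°C. Viability is stated per plate relative to DMSO wells, with cell-free wells as background.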

[1] abbreviates: HPLM + 10% dialyzed FBS, 0.000781 µM.
Where [2] appears, read: HPLM + 10% dialyzed FBS, 0.00234 µM.
The mark [3] stands for this setting: HPLM + 10% dialyzed FBS, 0.00702 µM.
Setting [4] is: HPLM + 10% dialyzed FBS, 0.0211 µM.
Setting [5] is: HPLM + 10% dialyzed FBS, 0.0632 µM.
The mark [6] stands for this setting: HPLM + 10% dialyzed FBS, 0.19 µM.
Where [7] appears, read: HPLM + 10% dialyzed FBS, 0.569 µM.
The mark [8] stands for this setting: HPLM + 10% dialyzed FBS, 1.71 µM.
Setting [9] is: HPLM + 10% dialyzed FBS, 5.12 µM.
Setting [10] is: HPLM + 10% dialyzed FBS, 15.4 µM.
Setting [11] is: HPLM + 10% dialyzed FBS, 46.1 µM.
[12] abbreviates: RPMI 5 mM glucose + 10% FBS, 0.000781 µM.
The mark [13] stands for this setting: RPMI 5 mM glucose + 10% FBS, 0.00234 µM.
Setting [14] is: RPMI 5 mM glucose + 10% FBS, 0.00702 µM.
Where [15] appears, read: RPMI 5 mM glucose + 10% FBS, 0.0211 µM.
Where [16] appears, read: RPMI 5 mM glucose + 10% FBS, 0.0632 µM.
[17] abbreviates: RPMI 5 mM glucose + 10% FBS, 0.19 µM.
Where [18] appears, read: RPMI 5 mM glucose + 10% FBS, 0.569 µM.
The mark [19] stands for this setting: RPMI 5 mM glucose + 10% FBS, 1.71 µM.
Where [20] appears, read: RPMI 5 mM glucose + 10% FBS, 5.12 µM.
Setting [21] is: RPMI 5 mM glucose + 10% FBS, 15.4 µM.
[22] abbreviates: RPMI 5 mM glucose + 10% FBS, 46.1 µM.
[23] abbreviates: RPMI 5 mM glucose + 10% dialyzed FBS, 0.000781 µM.
Setting [24] is: RPMI 5 mM glucose + 10% dialyzed FBS, 0.00234 µM.
Where [25] appears, read: RPMI 5 mM glucose + 10% dialyzed FBS, 0.00702 µM.
Setting [26] is: RPMI 5 mM glucose + 10% dialyzed FBS, 0.0211 µM.
The mark [27] stands for this setting: RPMI 5 mM glucose + 10% dialyzed FBS, 0.0632 µM.
The mark [28] stands for this setting: RPMI 5 mM glucose + 10% dialyzed FBS, 0.19 µM.
Where [29] appears, read: RPMI 5 mM glucose + 10% dialyzed FBS, 0.569 µM.
The mark [30] stands for this setting: RPMI 5 mM glucose + 10% dialyzed FBS, 1.71 µM.
The mark [31] stands for this setting: RPMI 5 mM glucose + 10% dialyzed FBS, 5.12 µM.
Where [32] appears, read: RPMI 5 mM glucose + 10% dialyzed FBS, 15.4 µM.
Setting [33] is: RPMI 5 mM glucose + 10% dialyzed FBS, 46.1 µM.

Regarding `CC(C)C1=N[N](C\2=C1C(=O)N\C(=N2)CC3=CC=C(OCCO)C=C3)C4=C(Cl)C=CC=C4Cl`, the cell viability under setting [1] is 95.1%; the cell viability under setting [2] was found to be 125%; the cell viability under setting [3] is 108%; the cell viability under setting [4] was 109%; the cell viability under setting [5] stood at 95.9%; the cell viability under setting [6] worked out at 16.8%. The cell viability under setting [7] was determined as 8.67%; the cell viability under setting [8] came to 6.16%; the cell viability under setting [9] was 5.35%; the cell viability under setting [10] came out at 4.68%; the cell viability under setting [11] was 3.44%; the cell viability under setting [12] came out at 52.1%. Besides, the cell viability by setting is: under setting [13], 98.6%; under setting [14], 85.3%; under setting [15], 75.8%; under setting [16], 76.5%; under setting [17], 13.8%; under setting [18], 6.73%. Also, the cell viability reads like this: under setting [19], 4.7%; under setting [20], 4.18%; under setting [21], 4.05%; under setting [22], 2.06%; under setting [23], 90.4%; under setting [24], 102%. The cell viability reads like this: under setting [25], 100%; under setting [26], 109%; under setting [27], 107%; under setting [28], 34.2%; under setting [29], 8.73%; under setting [30], 6.73%. Further, the cell viability under setting [31] was 5.07%, the cell viability under setting [32] came to 4.3% and the cell viability under setting [33] stood at 3.59%.

`CCCCc1oc2ccccc2c1C(=O)c1cc(I)c(OCCN(CC)CC)c(I)c1`: the cell viability is, setting by setting: under setting [12], 108%; under setting [13], 116%; under setting [14], 132%; under setting [15], 136%; under setting [16], 115%; under setting [17], 113%. Moreover, the cell viability turned out to be 136% under setting [18]; 116% under setting [19]; 119% under setting [20]; 107% under setting [21]; 97.6% under setting [22].

Take `CCCCc1ccc(N[S+](=O)([O-])c2ccc(C)c(C(=O)N3CCN(c4cccc(C)c4C)CC3)c2)cc1`: the cell viability by setting is: under setting [12], 120%; under setting [13], 124%; under setting [14], 138%; under setting [15], 17.1%; under setting [16], 129%; under setting [17], 118%. Besides, the cell viability is, setting by setting: under setting [18], 137%; under setting [19], 126%; under setting [20], 119%; under setting [21], 106%; under setting [22], 98.2%; under setting [23], 117%. Also, the cell viability is, setting by setting: under setting [24], 96.2%; under setting [25], 127%; under setting [26], 21.2%; under setting [27], 118%; under setting [28], 118%; under setting [29], 106%. The cell viability worked out at 117% under setting [30], 107% under setting [31], 117% under setting [32] and 84.9% under setting [33].

Consider `CC1CCN(c2cc(N3CCN(C)CC3)ccc2NC(=O)c2cc(C#N)c[nH]2)CC1`, for which the cell viability under setting [1] came to 122%; the cell viability under setting [2] turned out to be 119%; the cell viability under setting [3] worked out at 120%; the cell viability under setting [4] turned out to be 129%; the cell viability under setting [5] is 129%; the cell viability under setting [6] was determined as 121%. Also, the cell viability came to 124% under setting [7]; 118% under setting [8]; 112% under setting [9]; 102% under setting [10]; 93.6% under setting [11]; 119% under setting [12]. Further, the cell viability is, setting by setting: under setting [13], 124%; under setting [14], 136%; under setting [15], 137%; under setting [16], 123%; under setting [17], 123%; under setting [18], 133%. Besides, the cell viability by setting is: under setting [19], 129%; under setting [20], 92.9%; under setting [21], 102%; under setting [22], 83.5%.

Regarding `CC(=O)O/N=C1/C(=C2\C(=O)Nc3cc(Br)ccc32)Nc2ccccc21`, the cell viability is, setting by setting: under setting [1], 128%; under setting [2], 110%; under setting [3], 119%; under setting [4], 118%; under setting [5], 111%; under setting [6], 113%. For the same molecule, the cell viability stood at 86.1% under setting [7]; 37.8% under setting [8]; 32.8% under setting [9]; 13.2% under setting [10]; 2.6% under setting [11]; 112% under setting [12]. The cell viability runs as follows: under setting [13], 116%; under setting [14], 109%; under setting [15], 108%; under setting [16], 119%; under setting [17], 102%; under setting [18], 87.6%. Also, the cell viability by setting is: under setting [19], 29.5%; under setting [20], 22.4%; under setting [21], 8.09%; under setting [22], 0.612%; under setting [23], 113%; under setting [24], 122%. The cell viability came out at 122% under setting [25]; 129% under setting [26]; 100% under setting [27]; 95% under setting [28]; 84.6% under setting [29]; 30.1% under setting [30]. For the same molecule, the cell viability was determined as 37.5% under setting [31], 11.8% under setting [32] and 1.61% under setting [33].

As to `COc1ccc2c(c1)CC[C@@H](CN(C)CC(=O)O)[C@H]2c1ccccc1`, the cell viability reads like this: under setting [12], 120%; under setting [13], 122%; under setting [14], 126%; under setting [15], 109%; under setting [16], 124%; under setting [17], 104%. Moreover, the cell viability is 110% under setting [18]; 79.8% under setting [19]; 31% under setting [20]; 20.9% under setting [21]; 16% under setting [22]; 94.9% under setting [23]. Also, the cell viability was 100% under setting [24]; 101% under setting [25]; 110% under setting [26]; 109% under setting [27]; 115% under setting [28]; 115% under setting [29]. Further, the cell viability worked out at 91.3% under setting [30], 41.5% under setting [31], 24.8% under setting [32] and 19.9% under setting [33].

Broadly, the cell viability is a read-out of living cells in per cent, often relative to untreated cells.

The values are drawn from the supplement of paper PMC11451515.
